Assay results published in patent US20090143450A1, “METHOD FOR TREATING CENTRAL PAIN SYNDROM OR FOR INDUCING CENTRALLY GENERATED PAIN IN AN ANIMAL MODEL” (UNIVERSITY OF MARYLAND, BALTIMORE, priority 2005, published 2009).

Legend:
[1] = system: animals with lesioned spinothalamic tracts; experiment: von Frey filament test for allodynia after spinothalamic tract transection; assay type: in vivo, rat; conditions: 500 mg/kg intraperitoneally; FIG. 4B
Procedure: (§1) Spinothalamic tract transection. The spinothalamic tract is transected bilaterally at the level of the thoracic/lumbar border, thereby severing the ascending pathways conveying somatosensory, thermal and nociceptive information to the cortex via the thalamus. Male, adult Sprague-Dawley rats (ca. 200 gm) are anesthetized with pentobarbital and a T8 laminectomy is performed. The dura is opened with the tip of a 21 g. syringe needle to expose the spinal cord. The spinal cord is then lifted and rotated using a fine, sterile glass rod, and the ventral lateral pain pathways are severed electrolytically using a 1 MΩ sharpened tungsten needle and a 45 V pulse for 1 min. The lesion is packed with a small piece of sterile gelfoam. The overlying muscles and skin are closed and sutured, and the animal is allowed to recover on a 37° C. heating pad. Sham-operated controls undergo a laminectomy without dural penetration or spinal injury. This spinal transection procedure is a useful model of central pain syndrome where increased pain sensitivity and allodynia were observed. At various times after the lesion, standard behavioral tests were completed to assay the threshold for a stimulus to be perceived as painful, and allodynia was performed on awake, behaving animals. […] The paw withdrawal latency is automatically recorded when the rat withdraws its paw from the stimulus. […]

[2] = system: animals with lesioned spinothalamic tracts; experiment: Paw withdrawal latency test for hyperalgesia after spinothalamic tract transection; assay type: in vivo, rat; conditions: 500 mg/kg intraperitoneally; FIG. 4A
Procedure: as §1

CA1 cells = experiment: Plateau potentials evoked by glutamate photolysis on CA1 cell dendrites in hippocampal slice cultures; assay type: cell-based; conditions: compared with control CA1 cells
Description: It may be expected based on previous studies in the laboratory of the present inventor that partial denervation and removal of the majority of the excitatory input to area CA1 would result in a quiescent population of cells. In fact, local stimulation within area CA1 triggers prolonged, abnormally oscillatory synaptic responses in lesioned cultures that are never seen in normally innervated tissue (FIG. 1, top row), but only with a delay of 7 or more days after the injury (Wei et al., 2003). The reason is […] that denervation increases glutamate receptor expression in CA1 cells, akin to the well known phenomenon of denervation suprasensitivity in muscle. To confirm, the laboratory of the present inventor used photolysis of caged glutamate to compare the responses of CA1 cell dendrites in lesioned and unlesioned cultures.
In control cultures, distal, terminal dendritic branches of CA1 cells respond to weak photolysis of glutamate with passive subthreshold depolarizations. Stronger glutamate applications, however, trigger all-or-none Ca^2+-sensitive responses that are called plateau potentials (Wei et al., 2001). […] Plateau potentials, in contrast, are accompanied by Ca^2+ signals that can be seen throughout the stimulated dendrite within milliseconds, indicative of their rapid electrical propagation along the entire stimulated branch.

Row | SMILES | allodynia (von Frey's test) [1] | hyperalgesia (paw withdrawal latency) [2] | prolongation of plateau potentials in denervated CA1 cells (CA1 cells)
1 | CCC1(C)CC(=O)NC1=O (stereo not shown) [ethosuximide, 2-methyl-2-ethyl succinimide] | reduced transiently | reduced transiently | –
2 | CC[N+](CC)(CC)CC [TEA] | – | – | occluded
3 | O=C(O)CN(CC(=O)O)c1ccccc1OCCOc1ccccc1N(CC(=O)O)CC(=O)O [BAPTA] | – | – | occluded
